Where two headings read alike, the source gives them in different places.
Columns and labels:
recombinant PIM-1 = recombinant PIM-1 (Homo sapiens, UniProt P11309); assay: PIM-1 kinase assay; assay type: biochemical; details: for inhibition at 0.5 µM: 500 nM compound, read-out: PIM1: % inh 500 nM
Protocol: The following procedure was used to assay the PIM-1 kinase activity of compounds of the invention. Other methods for assaying PIM-1 and other PIM kinases, as well as methods to assay for activity against various kinases known in the art.
In a final reaction volume of 50 ul, recombinant PIM-1 (1 ng) was incubated with 12 mM MOPS pH 7.0, 0.4 mM EDTA, glycerol 1%, brij 35 0.002%, 2-mercaptoethanol 0.02%, BSA 0.2 mg/ml, 100 uM KKRNRTLTK, 10 mM MgAcetate, 15 uM ATP, [γ-^33P-ATP] (specific activity approx. 500 cpm/pmol), DMSO 4% and test inhibitor compound at the required concentration. The reaction was initiated by the addition of the Magnesium ATP mixture. After 40 min incubation at 23° C., the reactions were quenched by the addition of 100 ul 0.75% Phosphoric acid, and the labeled peptide collected by filtration through a phosphocellulose filter plate. The plate was washed 4 times with 0.075% phosphoric acid (100 ul per well) and then, after the addition of scintillation fluid (20 ul per well), the counts were measured by a scintillation counter.

[1] = system: K-562 human chronic myelogenous leukemia (CML) cells; assay: Alamar Blue cell proliferation assay, K-562; assay type: cell-based
Protocol: (§1) A representative cell-proliferation assay protocol using Alamar Blue dye (stored at 4° C., use 20 ul per well) is described hereafter.
(§2) a. Split and trypsinize cells.
(§3) b. Count cells using hemocytometer.
(§4) c. Plate 4,000-5,000 cells per well in 100 μl of medium and seed into a 96-well plate according to the following plate layout. Add cell culture medium only to wells B10 to B12. Wells B1 to B9 have cells but no compound added.
(§5) d. Add 100 μl of 2× drug dilution to each well in a concentration shown in the plate layout above. At the same time, add 100 μl of media into the control wells (wells B10 to B12). Total volume is 200 μl/well.
(§6) e. Incubate four (4) days at 37° C., 5% CO2 in a humidified incubator.
(§7) f. Add 20 μl Alamar Blue reagent to each well.
(§8) g. Incubate for four (4) hours at 37° C., 5% CO2 in a humidified incubator.
(§9) h. Record fluorescence at an excitation wavelength of 544 nm and emission wavelength of 590 nm using a microplate reader.
(§10) In the assays, cells are cultured with a test compound for approximately four days, the dye is then added to the cells and fluorescence of […] dye is detected after approximately four hours. Different types of cells can be utilized in the assays (e.g., HCT-116 human colorectal carcinoma cells, PC-3 human prostatic cancer cells, MDA-MB231 human breast cancer cells, K-562 human chronic myelogenous leukemia (CML) cells, MiaPaca human pancreatic carcinoma cells, MV-4 human acute myeloid leukemia cells, and BxPC3 human pancreatic adenocarcinoma cells).

[2] = system: MDA-MB231 human breast cancer cells; assay: Alamar Blue cell proliferation assay, MDA-MB231; assay type: cell-based; details: MDA-MB-231, read-out: MDAMB231 IC50
Protocol: as §1, §2, §3, §4, §5, §6, §7, §8, §9, §10

MV-4-11 = assay: Alamar Blue cell proliferation assay, MV-4-11; assay type: cell-based; details: Homo sapiens, MV4-11
Protocol: as §1, §2, §3, §4, §5, §6, §7, §8, §9, §10

[3] = system: MiaPaca human pancreatic carcinoma cells; assay: Alamar Blue cell proliferation assay, MiaPaCa; assay type: cell-based; details: MIA PaCa-2
Protocol: as §1, §2, §3, §4, §5, §6, §7, §8, §9, §10

recombinant human PIM2 = recombinant human PIM2 (Homo sapiens, UniProt Q9P1W9); assay: PIM-2 kinase assay; assay type: biochemical
Protocol: Test compounds dissolved and diluted in DMSO (2 μl) were added to a reaction mixture comprising 10 μl of 5× Reaction Buffer (40 mM MOPS pH 7.0, 5 mM EDTA), 10 μl of recombinant human PIM2 solution (4 ng PIM-2 dissolved in dilution buffer (20 mM MOPS pH 7.0; EDTA 1 mM; 5% Glycerol; 0.01% Brij 35; […]; […] 2-mercaptoethanol; 1 mg/ml BSA)) and 8 ul of water. Reactions were initiated by the addition of 10 ul of ATP Solution ([…] (15 mM MgCl2; 75 uM ATP) 1% ([γ-33P]ATP: Stock 1 mCi/100 μl; 3000 Ci/mmol (Perkin Elmer)) and 10 ul of substrate peptide solution (RSRSSYPAGT, dissolved in water at a concentration of 1 mM), Reactions were maintained for 10 min at 30° C. The reactions were quenched with 100 ul of 0.75% Phosphoric acid, then transferred to and filtered through a Phosphocellulose filter plate (Millipore, MSPH-N6B-50). After washing each well 4 times with 0.75% Phosphoric acid, scintillation fluid (20 uL) was added to each well and the residual radioactivity was measured using a Wallac luminescence counter.

MDA-MB45 = assay: Alamar Blue cell proliferation assay, MDA-MB45; assay type: cell-based
Protocol: as §1, §2, §3, §4, §5, §6, §7, §8, §9, §10

recombinant human CK2 = target: T1, recombinant human CK2 (Homo sapiens, UniProt P68400); assay: cell-free CK2 assay; assay type: biochemical
T1 construct: purchased Upstate
Protocol: Modulatory activity of compounds described herein was assessed in vitro in cell-free CK2 assays by the following method.
Test compounds in aqueous solution were added at a volume of 10 microliters, to a reaction mixture comprising 10 microliters Assay Dilution Buffer (ADB; 20 mM MOPS, pH 7.2, 25 mM beta-glycerolphosphate, 5 mM EGTA, 1 mM sodium orthovanadate and 1 mM dithiothreitol), 10 microliters of substrate peptide (RRRDDDSDDD, dissolved in ADB at a concentration of 1 mM), 10 microliters of recombinant human CK2 (25 ng dissolved in ADB; Upstate). Reactions were initiated by the addition of 10 microliters of ATP Solution (90% 75 mM MgCl2, 75 micromolar ATP dissolved in ADB; 10% [γ-^33P]ATP (stock 1 mCi/100 μl; 3000 Ci/mmol (Perkin Elmer) and maintained for 10 minutes at 30 degrees C. The reactions were quenched with 100 microliters of 0.75% phosphoric acid, then transferred to and filtered through a phosphocellulose filter plate (Millipore). After washing each well 5 times with 0.75% phosphoric acid, the plate was dried under vacuum for 5 min and, following the addition of 15 ul of scintilation fluid to each well, the residual radioactivity was measured using a Wallac luminescence counter.

SUM-149PT = assay: Alamar Blue cell proliferation assay, SUM-149PT; assay type: cell-based; details: Homo sapiens, SUM149PT
Protocol: as §1, §2, §3, §4, §5, §6, §7, §8, §9, §10

[4] = system: BxPC3 human pancreatic adenocarcinoma cells; assay: Alamar Blue cell proliferation assay, BxPC3; assay type: cell-based; details: BXPC-3
Protocol: as §1, §2, §3, §4, §5, §6, §7, §8, §9, §10

[5] = system: PC-3 human prostatic cancer cells; assay: Alamar Blue cell proliferation assay, PC3; assay type: cell-based
Protocol: as §1, §2, §3, §4, §5, §6, §7, §8, §9, §10

[6] = 15 μM ATP, read-out: PIM1: IC50 (15 μM ATP)

T1 sequence (P68400 whole entry): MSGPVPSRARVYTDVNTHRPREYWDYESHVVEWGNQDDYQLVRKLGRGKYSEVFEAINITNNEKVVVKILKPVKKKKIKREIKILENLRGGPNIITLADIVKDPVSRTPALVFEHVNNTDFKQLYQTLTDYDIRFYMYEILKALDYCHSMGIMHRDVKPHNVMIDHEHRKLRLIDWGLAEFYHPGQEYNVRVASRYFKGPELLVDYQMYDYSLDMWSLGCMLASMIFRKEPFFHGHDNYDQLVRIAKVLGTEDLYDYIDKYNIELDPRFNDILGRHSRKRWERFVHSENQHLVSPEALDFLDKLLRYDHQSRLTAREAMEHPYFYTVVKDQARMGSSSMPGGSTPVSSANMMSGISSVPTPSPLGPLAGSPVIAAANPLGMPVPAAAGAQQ
T1 sequence (P67870 whole entry partner): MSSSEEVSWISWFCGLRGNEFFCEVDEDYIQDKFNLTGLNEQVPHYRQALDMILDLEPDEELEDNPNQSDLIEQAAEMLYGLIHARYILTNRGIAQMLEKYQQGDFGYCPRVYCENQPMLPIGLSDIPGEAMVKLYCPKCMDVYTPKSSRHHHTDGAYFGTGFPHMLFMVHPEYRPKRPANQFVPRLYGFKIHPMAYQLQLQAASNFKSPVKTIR
Chain of recombinant PIM-1 (P11309 whole entry): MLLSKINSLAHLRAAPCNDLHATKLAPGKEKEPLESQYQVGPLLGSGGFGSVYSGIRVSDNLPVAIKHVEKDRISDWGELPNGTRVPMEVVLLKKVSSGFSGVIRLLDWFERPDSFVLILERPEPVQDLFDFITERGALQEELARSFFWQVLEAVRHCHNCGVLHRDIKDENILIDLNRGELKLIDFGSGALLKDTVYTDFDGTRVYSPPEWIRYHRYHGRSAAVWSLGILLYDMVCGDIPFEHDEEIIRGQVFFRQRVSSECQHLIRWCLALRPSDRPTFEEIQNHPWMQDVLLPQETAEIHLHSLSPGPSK
Chain of recombinant human PIM2 (Q9P1W9 whole entry): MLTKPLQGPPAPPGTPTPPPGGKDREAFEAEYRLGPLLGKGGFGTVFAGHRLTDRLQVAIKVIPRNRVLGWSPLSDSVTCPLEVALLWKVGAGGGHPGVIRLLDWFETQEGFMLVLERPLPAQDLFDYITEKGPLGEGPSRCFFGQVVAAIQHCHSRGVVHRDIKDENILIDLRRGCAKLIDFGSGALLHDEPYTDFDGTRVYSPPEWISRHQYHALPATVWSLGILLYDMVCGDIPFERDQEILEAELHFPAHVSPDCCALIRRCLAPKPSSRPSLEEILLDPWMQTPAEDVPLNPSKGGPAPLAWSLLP

SMILES	inhibition at 0.5 µM (recombinant PIM-1) [%]	IC50 (recombinant PIM-1; [6]) [µM]	IC50 ([1]; K562, Table 4) [µM]	IC50 [2] [µM]	IC50 (MV-4-11; Table 4) [µM]	IC50 [3] [µM]	IC50 (recombinant human PIM2) [µM]	IC50 (MDA-MB45) [µM]	IC50 ([1]; K562, Table 5) [µM]	IC50 (MV-4-11; Table 5) [µM]	IC50 (recombinant human CK2) [µM]	IC50 (SUM-149PT) [µM]	IC50 [4] [µM]	IC50 (recombinant PIM-1; Table 5, read-out: PIM1 IC50) [µM]	IC50 [5] [µM]
Fc1ccc(Nc2nc3cc(-c4nnn[nH]4)ccc3n3cccc23)cc1Cl	50.5	0.504	> 10	> 10	1.21	> 10	–	–	–	–	–	–	–	–	–
Fc1ccccc1Nc1nc2c(-c3nnc[nH]3)cccc2n2cncc12	–	–	–	–	–	–	< 0.1	< 5	< 10	< 1	< 0.1	< 10	15.1	–	–
Clc1ccc(Nc2nc3cc(-c4nnn[nH]4)ccc3n3cccc23)cc1	57.1	0.576	> 10	> 10	> 10	> 10	–	–	–	–	–	–	–	–	–
Oc1cccc(Nc2nc3c(-c4nnc[nH]4)cccc3n3cccc23)c1	–	–	–	–	–	–	< 0.1	28	> 10	< 5	< 1	> 30	≥ 30	< 0.1	–
CN(c1ccccc1)c1nc2cc(-c3nnn[nH]3)ccc2n2cccc12	15.3	–	> 10	–	> 10	> 10	–	–	–	–	–	–	–	–	> 10
Fc1ccc(Nc2nc3c(-c4nnc[nH]4)cccc3n3cccc23)c(F)c1	–	–	–	–	–	–	< 0.1	15.7	< 10	< 5	< 0.1	23.3	10.2	< 0.1	–
CN(c1ccccc1F)c1nc2cc(-c3nnn[nH]3)ccc2n2cccc12	51.4	0.774	> 10	–	> 10	> 10	–	–	–	–	–	–	–	–	> 10
CN(C)CCNc1nc2cc(C#N)ccc2n2cccc12	20.1	–	5.24	–	2.73	1.29	–	–	–	–	–	–	–	–	8.31
O=C(NC1CC1)c1cccc2c1nc(Nc1ccccc1F)c1cccn12	–	–	–	–	–	–	< 1	12	> 10	< 10	< 1	< 10	> 30	< 0.1	–
Clc1cccc(-c2nc3cc(-c4nnn[nH]4)ccc3n3cccc23)c1	25	–	> 10	–	> 10	> 10	–	–	–	–	–	–	–	–	> 10
Fc1cccc(Nc2nc3cc(-c4nnn[nH]4)ccc3n3cccc23)c1	70	0.29	> 10	–	> 10	> 10	–	–	–	–	–	–	–	–	> 10
FC(F)(F)c1cccc(Nc2nc3cc(-c4nnn[nH]4)ccc3n3cccc23)c1	45.2	–	> 10	–	6.58	> 10	–	–	–	–	–	–	–	–	> 10
Fc1cc(F)cc(Nc2nc3cc(-c4nnn[nH]4)ccc3n3cccc23)c1	63.8	0.514	> 10	–	7.77	> 10	–	–	–	–	–	–	–	–	> 10
Clc1ccccc1Nc1nc2cc(-c3nnn[nH]3)ccc2n2cccc12	59.3	0.466	> 10	–	> 10	> 10	–	–	–	–	–	–	–	–	> 10
Cc1ccccc1Nc1nc2cc(C(=O)O)ccc2n2cccc12	43.8	–	> 10	–	> 10	> 10	–	–	–	–	–	–	–	–	> 10
Fc1ccccc1Nc1nc2c(-c3nnc[nH]3)cccc2n2cccc12	–	–	–	–	–	–	< 0.1	28.4	< 10	< 5	< 0.1	22.8	> 30	< 0.1	–
c1ccc(Nc2nc3c(-c4nnc[nH]4)cccc3n3cccc23)cc1	–	–	–	–	–	–	< 0.1	15.1	> 30	< 5	< 0.1	> 30	> 30	< 0.1	–
Clc1cccc(Nc2nc3c(-c4nnc[nH]4)cccc3n3cccc23)c1	–	–	–	–	–	–	< 0.1	16	> 10	< 5	< 0.1	21	≥ 30	< 0.1	–
